From patent US6369003B1, “Process and composition for soil improvement by reducing microbially formed ethylene in the soil” (BASF Aktiengesellschaft, priority 1994, dated 2002)

Columns and labels:
[1] = tested on: Peas (Kleine Rheinländerin); assay: Peas test 2a: biomass, root nodules, nitrogen assimilation, greenhouse; format: in vivo, Pisum sativum; conditions: 3 weeks after treatment; for Dry matter (shoot + root): control 3.3; for Nodules: control 13; for Total N (total nitrogen in shoot + root): control 78.5
Procedure: (§1) In these tests various types of non-sterile soils were used. The cultivation of the plants was carried out under greenhouse or climatic chamber conditions. The active compounds according to the invention were applied uniformly distributed over the soil surface in an aqueous preparation after the emergence of the respective test plants. The supply of water for the plants was carrried out using the same technique, always paying attention to uniform moistness of the soil. In the case of the cultivation of legumes, defined amounts of species-specific Rhizobia were admixed to the soil. In some cases inoculation was also carried out by seed treatment.
a) Peas (Kleine Rheinländerin) were cultivated under greenhouse conditions in low N Limburgerhof soil in plastic pots (500 ml) and watered from above as required (a constant weight was maintained here). A few days after emergence the plants were thinned out to 5 plants per pot.
In four pots in each case aqueous active compound solutions of one concentration of 2.3.1.3 were applied by watering. Four pots remained untreated.
3 weeks after treatment the following results were obtained: […]

[2] = tested on: Soybean plants (Delta Pine 415); assay: Soybeans test 3a: root nodules and total N, greenhouse; format: in vivo, Glycine max; conditions: after 3 weeks; for Nodules: untreated 49
Procedure: as §1
a) Soybean plants (Delta Pine 415) were cultivated under greenhouse conditions in low N Limburgerhof soil in plastic pots (500 ml) and watered from above as required. A few days after emergence the plants were thinned out to 5 plants per pot.
In 8 pots in each case per test member an aqueous active compound solution of 2.3.1.3 was applied by watering. 16 pots remained untreated in each case.

Soybeans (A 5403) = assay: Soybeans test 3d: root nodules, root and shoot biomass, greenhouse; format: in vivo, Glycine max; conditions: 30 days after treatment; for Nodules: untreated 38.3; for Dry matter root: untreated 1955; for Dry matter shoot: untreated 3616
Procedure: as §1, with “treatment. d) Soybeans (A 5403) were cultivated under greenhouse conditions in low N, sandy loam soil in plastic pots (750 ml) and watered from above as required. A few days after emergence the plants were thinned out to 3 plants per pot. In 5 pots in each case 25 ml each of an aqueous preparation of one concentration of 2.3.1.3 were applied by watering. 5 pots remained untreated. 30 days after treatment the following results were obtained: […]” for “treatment.”

[3] = tested on: Bean plants (Small Seeded Bell); assay: Field beans: root nodules, root and shoot biomass, greenhouse; format: in vivo, Vicia faba; conditions: 25 days after treatment; for Nodules: untreated 30.9; for Dry matter root: untreated 1090; for Dry matter shoot: untreated 2310
Procedure: as §1
Bean plants (Small Seeded Bell) were cultivated under greenhouse conditions in low N, sandy loam soil in plastic pots (750 ml) and watered from above as required. A few days after emergence the plants were thinned out to 3 plants per pot.
In 5 pots in each case 25 ml each of an aqueous preparation of one concentration of 2.3.1.3 were applied by watering. 5 pots remained untreated.
(§2) 25 days after treatment the following results were obtained: […]

Chick-pea plants (UC-27) = assay: Chick-peas: root nodules, root and shoot biomass, greenhouse; format: in vivo, Cicer arietinum; conditions: 25 days after treatment; for Nodules: untreated 11.3; for Dry matter root: untreated 1100; for Dry matter shoot: untreated 2110
Procedure: as §1
Chick-pea plants (UC-27) were cultivated under greenhouse conditions in low N, sandy loam soil in plastic pots (750 ml) and watered from above as required. A few days after emergence the plants were thinned out to 3 plants per pot.
In 6 pots in each case 25 ml each of an aqueous preparation of one concentration of 2.3.1.3 were applied by watering. 6 pots remained untreated.
as §2

[4] = tested on: Soybeans of the variety Delta Pine 147; assay: Field test: seed yield in soybeans; format: in vivo, Glycine max; conditions: untreated = 100 (29.9 dt/ha)
Procedure: The tests a) and b) were carried out under conditions like those in practice in 1993 on the field test site of BASF Corporation in Holly Springs, N.C., USA. This location is distinguished by a medium-heavy soil (sandy loam).
Soybeans of the variety Delta Pine 147 were used. Treatment was carried out to the following stages of development: 11 (1st trefoil formed), 13 (3rd trefoil formed) and 14 (5th trefoil formed). For treatment, the soil between the rows was sprayed with an aqueous preparation of the active compound 2.3.1.3. Immediately after the application, the active compound was washed into the soil by spray irrigation with 20 mm of water. The spray irrigation was also used to wash off active compound which had possibly reached the leaves.
Harvesting of the plants at full maturity gave the following results: […]

## COC(=O)COC(=O)CON=C(C)C [active compound 2.3.1.3]
[1]; 0.03 mg/pot
  Dry matter (shoot + root): 3.2 g/pot
  Nodules: 28 number/pot
  Total N (total nitrogen in shoot + root): 75.0 mg/pot
[1]; 0.30 mg/pot
  Dry matter (shoot + root): 4.0 g/pot
  Nodules: 127 number/pot
  Total N (total nitrogen in shoot + root): 120.5 mg/pot
[1]; 3.00 mg/pot
  Dry matter (shoot + root): 3.1 g/pot
  Nodules: 99 number/pot
  Total N (total nitrogen in shoot + root): 109.5 mg/pot
[2]; 0.003 mg of a.s./pot
  Total N (shoot + root): 109 % of control
  Nodules: 60 number/pot
[2]; 0.030 mg of a.s./pot
  Total N (shoot + root): 108 % of control
  Nodules: 62 number/pot
[2]; 0.300 mg of a.s./pot
  Total N (shoot + root): 118 % of control
  Nodules: 73 number/pot
Soybeans (A 5403); 3 g of a.s./ha
  Nodules: 47.6 number/plant
  Dry matter root: 2806 mg/plant
  Dry matter shoot: 4020 mg/plant
Soybeans (A 5403); 300 g of a.s./ha
  Nodules: 54.9 number/plant
  Dry matter root: 1326 mg/plant
  Dry matter shoot: 4117 mg/plant
[3]; 30 g of a.s./ha
  Nodules: 34.3 number/plant
  Dry matter root: 1380 mg/plant
  Dry matter shoot: 2880 mg/plant
[3]; 300 g of a.s./ha
  Nodules: 50.7 number/plant
  Dry matter root: 1470 mg/plant
  Dry matter shoot: 3940 mg/plant
[3]; 3000 g of a.s./ha
  Nodules: 48.2 number/plant
  Dry matter root: 960 mg/plant
  Dry matter shoot: 2450 mg/plant
Chick-pea plants (UC-27); 30 g of a.s./ha
  Nodules: 31.4 number/plant
  Dry matter root: 1280 mg/plant
  Dry matter shoot: 2690 mg/plant
Chick-pea plants (UC-27); 300 g of a.s./ha
  Nodules: 44.0 number/plant
  Dry matter root: 1520 mg/plant
  Dry matter shoot: 3350 mg/plant
Chick-pea plants (UC-27); 3000 g of a.s./ha
  Nodules: 6.2 number/plant
  Dry matter root: 1150 mg/plant
  Dry matter shoot: 4110 mg/plant
[4]; 10 g/ha of a.s., growth stage 11 during treatment
  Bean yield: 104%
[4]; 10 g/ha of a.s., growth stage 13 during treatment
  Bean yield: 116%
[4]; 10 g/ha of a.s., growth stage 14 during treatment
  Bean yield: 110%
[4]; 100 g/ha of a.s., growth stage 11 during treatment
  Bean yield: 122%
[4]; 100 g/ha of a.s., growth stage 13 during treatment
  Bean yield: 117%
[4]; 100 g/ha of a.s., growth stage 14 during treatment
  Bean yield: 112%
[4]; 1000 g/ha of a.s., growth stage 11 during treatment
  Bean yield: 110%
[4]; 1000 g/ha of a.s., growth stage 13 during treatment
  Bean yield: 122%
[4]; 1000 g/ha of a.s., growth stage 14 during treatment
  Bean yield: 108%
